Data taken from publication PMC11620503 (Antimicrobial Agents and Chemotherapy, 2024).
Values after ≈ are worked out from the molar mass of the structure shown. Values joined by “and” are separate entries in the source; they are usually repeats but may differ in a detail not shown here. Identical values can stand only once. Like-named read-outs stand apart in the source and are kept apart here. Marks after values point to notes of the source that are not given here.

Experiments:
IMP-1 = IMP-1 (Serratia marcescens, UniProt P52699); assay: Ki app determination (Waley's method)
CTX-M-15 = CTX-M-15 (Escherichia coli, UniProt Q9EXV5); assay: Ki app determination (Waley's method)
NDM-4 = NDM-4 (Klebsiella pneumoniae, UniProt C7C422, M154L); assay: Ki app determination (Waley's method)
VIM-1 = VIM-1 (Pseudomonas aeruginosa, UniProt A0A0F7KYQ8); assay: Ki app determination (Waley's method)
OXA-72 = OXA-72 (Acinetobacter baumannii, UniProt Q5XQU0); assay: Ki app determination (Waley's method)
CTX-M-27 = CTX-M-27 (Escherichia coli, UniProt Q840M4); assay: Ki app determination (Waley's method)
VIM-2 = VIM-2 (Escherichia coli, UniProt Q5U7L7); assay: Ki app determination (Waley's method)
SHV-12 = SHV-12 (Klebsiella pneumoniae, UniProt P0A3M1, L31Q); assay: Ki app determination (Waley's method)
OXA-66 = OXA-66 (Acinetobacter baumannii, UniProt Q58XD2); assay: Ki app determination (Waley's method)
SHV-2 = SHV-2 (Klebsiella pneumoniae, UniProt P0A9Z8); assay: Ki app determination (Waley's method)
NDM-7 = NDM-7 (Klebsiella pneumoniae, UniProt C7C422, D130N/M154L); assay: Ki app determination (Waley's method)
NDM-1 = NDM-1 (Klebsiella pneumoniae, UniProt C7C422); assay: Ki app determination (Waley's method)
NDM-6 = NDM-6 (Klebsiella pneumoniae, UniProt C7C422, A233V); assay: Ki app determination (Waley's method)
SHV-5 = SHV-5 (Klebsiella pneumoniae, UniProt P0A3M1); assay: Ki app determination (Waley's method)
CTX-M-14 = CTX-M-14 (Escherichia coli, UniProt Q9L5C7); assay: Ki app determination (Waley's method)
OXA-65 = OXA-65 (Acinetobacter baumannii, UniProt Q58XD3); assay: Ki app determination (Waley's method)
IMP-6 = IMP-6 (Serratia marcescens, UniProt P52699, S214G); assay: Ki app determination (Waley's method)
NDM-5 = NDM-5 (Klebsiella pneumoniae, UniProt C7C422, M154L/V88L); assay: Ki app determination (Waley's method)
[1] = test system: 55 isolates of A. baumannii; assay: MIC, broth microdilution; type: cell-based, Acinetobacter baumannii; conditions: Acinetobacter baumannii (55)
[2] = test system: MEM-nonsusceptible Enterobacterales with serine-carbapenemases; assay: MIC, broth microdilution; type: cell-based; conditions: MEM-nonsusceptible Enterobacterales with serine-carbapenemases (58)
[3] = test system: serine-carbapenemase-producing isolates (Enterobacterales); assay: MIC, broth microdilution; type: cell-based; conditions: Enterobacterales with serine-carbapenemases (80)
[4] = test system: 207 Enterobacterales including carbapenem-resistant isolates; assay: MIC, broth microdilution; type: cell-based
96 P. aeruginosa = assay: MIC, broth microdilution; type: cell-based, Pseudomonas aeruginosa; conditions: Pseudomonas aeruginosa (96); for MIC Range / MIC50 / MIC90: fixed concentration (μg/mL) in label
[5] = test system: MEM-nonsusceptible Enterobacterales; assay: MIC, broth microdilution; type: cell-based; conditions: MEM-nonsusceptible Enterobacterales (127), cefiderocol 126 isolates
[6] = test system: MEM-, imipenem/relebactam-, and ceftolozane/tazobactam-nonsusceptible P. aeruginosa; assay: MIC, broth microdilution; type: cell-based, Pseudomonas aeruginosa
[7] = test system: MEM-nonsusceptible Enterobacterales with metallo-carbapenemases; assay: MIC, broth microdilution; type: cell-based; conditions: MEM-nonsusceptible Enterobacterales with metallo-carbapenemases (55), cefiderocol 54 isolates
[8] = test system: MBL-producing isolates (Enterobacterales); assay: MIC, broth microdilution; type: cell-based
[9] = fixed concentration (μg/mL) in label
[10] = fixed concentration (μg/mL) in label, read-out: MIC50
[11] = fixed concentration (μg/mL) in label, read-out: MIC90
[12] = CLSI breakpoints, marked c: breakpoints for β-lactam alone, tigecycline: FDA breakpoints
[13] = All Enterobacterales (207), cefiderocol 205 isolates, CLSI breakpoints, marked c: breakpoints for β-lactam alone, tigecycline: FDA breakpoints
[14] = All Enterobacterales (207), cefiderocol 205 isolates, fixed concentration (μg/mL) in label
[15] = MEM-nonsusceptible Pseudomonas aeruginosa (76), fixed concentration (μg/mL) in label
[16] = Enterobacterales with metallo-carbapenemases (74), cefiderocol 73 isolates, CLSI breakpoints, marked c: breakpoints for β-lactam alone, tigecycline: FDA breakpoints
[17] = Enterobacterales with metallo-carbapenemases (74), cefiderocol 73 isolates, fixed concentration (μg/mL) in label
[18] = CLSI breakpoints, marked c: breakpoints for β-lactam alone
[19] = MEM-nonsusceptible Pseudomonas aeruginosa (76), CLSI breakpoints, marked c: breakpoints for β-lactam alone

NC(=O)[C@@H]1CC[C@@H]2CN1C(=O)N2OS(=O)(=O)O [Avibactam, avibactam]
Ki (IMP-1): > 100000 nM
Ki (CTX-M-15): 0.369 ± 0.0569 nM
Ki (NDM-4): > 100000 nM
Ki (VIM-1): > 100000 nM
Ki (OXA-72): 691 ± 63.8 nM
Ki (CTX-M-27): 1.29 ± 0.663 nM
Ki (VIM-2): > 100000 nM
Ki (SHV-12): 2.55 ± 0.696 nM
Ki (OXA-66): 7350 nM
Ki (SHV-2): 2.26 ± 1.44 nM
Ki (NDM-7): > 100000 nM
Ki (NDM-1): > 100000 nM
Ki (NDM-6): > 100000 nM
Ki (SHV-5): 2.15 ± 0.264 nM
Ki (CTX-M-14): 2.35 ± 0.763 nM
Ki (OXA-65): 5900 nM
Ki (IMP-6): > 100000 nM
Ki (NDM-5): > 100000 nM

CN(C)c1cc(NC(=O)CNC(C)(C)C)c(O)c2c1C[C@H]1C[C@H]3[C@H](N(C)C)C(O)=C(C(N)=O)C(=O)[C@@]3(O)C(O)=C1C2=O [tigecycline]
MIC Range [1, 9]: 0.25 to 2 µg/mL
MIC50 [1, 10]: 1 µg/mL (≈ 1.71 µM)
MIC90 [1, 11]: 1 µg/mL (≈ 1.71 µM)
CLSI MIC interpretation I (intermediate) [2, 12]: 1.7^d %
CLSI MIC interpretation R (resistant) [2, 12]: 0.0^d %
CLSI MIC interpretation S (susceptible) [2, 12]: 98.3^d %
MIC Range [2, 9]: 0.12 to 4 µg/mL
MIC50 [2, 10]: 1 µg/mL (≈ 1.71 µM)
MIC90 [2, 11]: 2 µg/mL (≈ 3.41 µM)
CLSI MIC interpretation I (intermediate) [3, 12]: 3.8^d %
CLSI MIC interpretation R (resistant) [3, 12]: 0.0^d %
CLSI MIC interpretation S (susceptible) [3, 12]: 96.3^d %
MIC Range [3, 9]: 0.12 to 4 µg/mL
MIC50 [3, 10]: 1 µg/mL (≈ 1.71 µM)
MIC90 [3, 11]: 2 µg/mL (≈ 3.41 µM)
CLSI MIC interpretation I (intermediate) [4, 13]: 4.3^d %
CLSI MIC interpretation R (resistant) [4, 13]: 0.5^d %
CLSI MIC interpretation S (susceptible) [4, 13]: 95.2^d %
MIC Range [4, 14]: 0.12 to 16 µg/mL
MIC50 ([4]; read-out: MIC50): 0.5 µg/mL (≈ 0.854 µM)
MIC90 ([4]; read-out: MIC90): 2 µg/mL (≈ 3.41 µM)
MIC Range (96 P. aeruginosa): 0.5 to 16 µg/mL
MIC50 (96 P. aeruginosa; read-out: MIC50): 4 µg/mL (≈ 6.83 µM)
MIC90 (96 P. aeruginosa; read-out: MIC90): 16 µg/mL (≈ 27.3 µM)
CLSI MIC interpretation I (intermediate) [5, 12]: 5.5^d %
CLSI MIC interpretation R (resistant) [5, 12]: 0.8^d %
CLSI MIC interpretation S (susceptible) [5, 12]: 93.7^d %
MIC Range [5, 9]: 0.12 to 16 µg/mL
MIC50 [5, 10]: 1 µg/mL (≈ 1.71 µM)
MIC90 [5, 11]: 2 µg/mL (≈ 3.41 µM)
MIC Range ([6]; Imipenem/relebactam-nonsusceptible Pseudomonas aeruginosa (43), fixed concentration (μg/mL) in label): 1 to 16 µg/mL
MIC Range [6, 15]: 1 to 16 µg/mL
MIC50 ([6]; Pseudomonas aeruginosa, Imipenem/relebactam-nonsusceptible Pseudomonas aeruginosa (43), fixed concentration (μg/mL) in label, read-out: MIC50): 4 µg/mL
MIC90 ([6]; Pseudomonas aeruginosa, Imipenem/relebactam-nonsusceptible Pseudomonas aeruginosa (43), fixed concentration (μg/mL) in label, read-out: MIC90): 16 µg/mL
MIC50 ([6]; Pseudomonas aeruginosa, MEM-nonsusceptible Pseudomonas aeruginosa (76), fixed concentration (μg/mL) in label, read-out: MIC50): 4 µg/mL (≈ 6.83 µM)
MIC90 ([6]; Pseudomonas aeruginosa, MEM-nonsusceptible Pseudomonas aeruginosa (76), fixed concentration (μg/mL) in label, read-out: MIC90): 16 µg/mL (≈ 27.3 µM)
MIC50 ([6]; Pseudomonas aeruginosa, Table 2, broth microdilution, read-out: MIC50): 4 µg/mL (≈ 6.83 µM)
MIC90 ([6]; Pseudomonas aeruginosa, Table 2, broth microdilution, read-out: MIC90): 16 µg/mL (≈ 27.3 µM)
MIC Range ([6]; last subgroup of Table 2 (heading not shown; 45 isolates by the percentages, ceftolozane/tazobactam 0% S), broth microdilution): 1 to 16 µg/mL
CLSI MIC interpretation I (intermediate) [7, 12]: 10.9^d %
CLSI MIC interpretation R (resistant) [7, 12]: 0.0^d %
CLSI MIC interpretation S (susceptible) [7, 12]: 89.1^d %
MIC Range [7, 9]: 0.12 to 4 µg/mL
MIC50 [7, 10]: 1 µg/mL (≈ 1.71 µM)
MIC90 [7, 11]: 4 µg/mL (≈ 6.83 µM)
CLSI MIC interpretation I (intermediate) [8, 16]: 8.1^d %
CLSI MIC interpretation R (resistant) [8, 16]: 0.0^d %
CLSI MIC interpretation S (susceptible) [8, 16]: 91.9^d %
MIC Range [8, 17]: 0.12 to 4 µg/mL
MIC50 ([8]; Enterobacterales with metallo-carbapenemases (74), cefiderocol 73 isolates, fixed concentration (μg/mL) in label, read-out: MIC50): 0.5 µg/mL (≈ 0.854 µM)
MIC90 ([8]; Enterobacterales with metallo-carbapenemases (74), cefiderocol 73 isolates, fixed concentration (μg/mL) in label, read-out: MIC90): 2 µg/mL (≈ 3.41 µM)
MIC90 ([8]; MBL-producing isolates, comparators, read-out: MIC90): ≤ 4 µg/mL

colistin
CLSI MIC interpretation I (intermediate) [1, 18]: 94.5%
CLSI MIC interpretation R (resistant) [1, 18]: 5.5%
MIC50 [1, 9]: 1 µg/mL
MIC90 [1, 9]: 2 µg/mL
CLSI MIC interpretation I (intermediate) [2, 12]: 74.1%
CLSI MIC interpretation R (resistant) [2, 12]: 25.9%
MIC50 [2, 9]: 0.5 µg/mL
MIC90 [2, 9]: >64 µg/mL
MIC50 [3, 9]: 0.5 µg/mL
MIC90 [3, 9]: >64 µg/mL
CLSI MIC interpretation I (intermediate) [4, 13]: 78.3%
CLSI MIC interpretation R (resistant) [4, 13]: 21.7%
MIC50 [4, 14]: 0.5 µg/mL
MIC90 [4, 14]: >64 µg/mL
CLSI MIC interpretation I (intermediate) (96 P. aeruginosa; [18]): 100%
CLSI MIC interpretation R (resistant) (96 P. aeruginosa; [18]): 0%
MIC50 (96 P. aeruginosa): 1 µg/mL
MIC90 (96 P. aeruginosa): 1 µg/mL
MIC Range (96 P. aeruginosa): 0.25 to 2 µg/mL
CLSI MIC interpretation I (intermediate) [5, 12]: 77.2%
CLSI MIC interpretation R (resistant) [5, 12]: 22.8%
MIC50 [5, 9]: 0.5 µg/mL
MIC90 [5, 9]: >64 µg/mL
CLSI MIC interpretation I (intermediate) [6]: 100%
CLSI MIC interpretation R (resistant) [6]: 0%
MIC50 [6]: 1 µg/mL
MIC90 [6]: 1 µg/mL
MIC Range [6]: 0.5 to 2 µg/mL and 0.25 to 2 µg/mL
CLSI MIC interpretation (%) I ([6]; I, intermediate (including susceptible dose-dependent), CLSI breakpoints, last subgroup of Table 2): 100%
CLSI MIC interpretation I (intermediate) [6, 19]: 100%
CLSI MIC interpretation R (resistant) [6, 19]: 0%
MIC50 [6, 15]: 1 µg/mL
MIC90 [6, 15]: 1 µg/mL
MIC Range [6, 15]: 0.25 to 2 µg/mL
CLSI MIC interpretation (%) R ([6]; R, resistant, CLSI breakpoints, last subgroup of Table 2): 0%
MIC50 ([6]; Table 2, broth microdilution): 1 µg/mL
MIC90 ([6]; Table 2, broth microdilution): 1 µg/mL
CLSI MIC interpretation R (resistant) [7, 12]: 14.5%
MIC50 [7, 9]: 0.5 µg/mL
MIC90 [7, 9]: 8 µg/mL
CLSI MIC interpretation I (intermediate) [8, 16]: 89.2%
CLSI MIC interpretation R (resistant) [8, 16]: 10.8%
MIC50 [8, 17]: 0.5 µg/mL
MIC90 [8, 17]: 4 µg/mL
MIC90 ([8]; MBL-producing isolates, comparators): ≤ 4 µg/mL
